According to PMC10305119, “Analogs of 6-Bromohypaphorine with Increased Agonist Potency for α7 Nicotinic Receptor as Anti-Inflammatory Analgesic Agents” (Marine Drugs, 2023):
“Also recorded” adds a separate entry of the source.

Tests used:
[1] = system: CD86 expression on macrophages; experiment: Flow cytometry of CD86 protein on macrophages; format: cell-based, human; details: 48 h incubation
Experimental: The effect of the above-listed compounds on the expression of the TLR4 receptor and the CD86 protein was studied by flow cytometry after 48 h incubation with macrophages. The interaction of bacterial endotoxins with the TLR4 receptor is known to activate the expression of several pro-inflammatory cytokine genes, while the co-stimulatory molecule CD86 plays an important role in […] inflammatory responses. A decrease in the expression of the TLR4 receptor was observed under the action of all tested compounds (Figure 4c,e), the rank order of these TLR4-suppressing effects was as follows: hypaphorine (14%) < PNU 282,987 (21%) < 6ID (31%).
Peripheral blood mononuclear cells (PBMCs) were separated by Ficoll-Paque PLUS density gradient centrifugation. PBMCs were placed in a sterile Petri dish and incubated at 37 °C for 2 h. Unattached cells were then removed by washing with PBS and substituted with fresh complete RPMI 1640 medium. To generate monocyte-derived macrophages (MDMs), 50 ng/mL GM-CSF was added to the isolated monocytes and cultured for 6 days to differentiate them into non-polarized MDMs.
Figure 4 The effects of PNU 282987, hypaphorine, and D-6-iodohypaphorine methyl ester (6ID) on macrophage membrane proteins expression. Cells were treated with these compounds for 48 h and then analyzed by flow cytometry. PNU 282,987 led to an increase in the (a) CD11b and (b) CD11c expression. (c): All tested compounds led to a decrease in TLR4 expression. (d): Macrophages stimulation with hypaphorine and 6ID promoted an increase in CD86 expression. Results obtained in three independent experiments on macrophages from different donors and presented as mean ± SD. One-way ANOVA tests with Tukey post hoc test: * p ˂0.05, ** p ˂ 0.01, **** p < 0.0001 in comparison with untreated cells.

[2] = system: MIA-induced arthritis; experiment: Monoiodoacetate-induced arthritis model, functional tests; format: in vivo, Wistar female rats
Experimental: By the 8th day of the experiment, the maximum inflammation of the knee joint was noted. […] On the 8th and 16th days, the effect of the compound was assessed using a set of functional tests: weight distribution between the healthy and inflamed limbs immediately after the first 6ND injection (Figure 8a) and after eight days of 6ND administration (Figure 8b), muscle strength grasping the hind limbs after the first 6ND injection (Figure 8c) and after eight days of 6ND administration (Figure 8d), mechanical allodynia after the start of 6ND administration and after eight days of 6ND administration (Figure 8e,f, respectively), thermal hypersensitivity 2 h after administration of 6ND ([…]), and measuring the diameter of the knee joint (Figure 8h).
(§1) Four groups of animals were formed: control and three groups with modelling of inflammation by introducing monoiodoacetate (MIA). Three groups of animals were injected with 3 mg MIA in 50 μL of 0.9% sodium chloride through the patellar ligament into the intra-articular space of the right knee using a 29-G needle. Control rats received an equivalent volume of 0.9% sodium chloride.
Assessments of inflammation in vivo and functional tests were conducted on days 8 and 16 after arthritis model induction. Thermal and mechanical hypersensitivity and pain-induced articular disability were tested in this model. Body weight gain and paw oedema were also monitored during the experiment.
The inflamed paw withdrawal or licking latencies to thermal stimulation were measured on a hot plate device (Hot Plate Analgesia Meter, Columbus Instruments) with a set temperature of 53 ± 0.1 °C and a cut-off time of 60 s.
Mechanical hypersensitivity was measured by the electronic von Frey instrument (model BIO-EVF4; Bioseb, Vitrolles, France) used to vertically stimulate the center of the rat hind paw with increasing intensity. Measurements were repeated 3 times and the final value was obtained by averaging the 3 measurements.
Behavioral assessment of movement-caused pain was carried out in a hind limb grip strength test using a Grip Strength Meter (Columbus Instruments, Columbus, OH, USA) consisting of a wire mesh frame connected to the gauge. Rats were restrained and allowed to grasp the wire mesh frame with their hind paws and then were pulled backwards until the grip released. Three measurements were conducted with an interval of 30 s for the averaged grip strength calculation.

[3] = system: MIA-induced arthritis; experiment: Monoiodoacetate-induced arthritis model, histological study of the knee joint; format: in vivo, female rats; details: 15th day, scale 0-5, n = 4
Source text: After the experiment termination and euthanasia of the experimental animals, biomaterials were taken for histological examination. Soft tissues around the right knee joint were excised as much as possible. Femur, tibia, and fibula were cut across in the middle of the diaphysis closer to the corresponding articular surfaces. The joint was fixed in a 10% solution of neutral formalin for seven days, washed in running water and then decalcified in Trilon B for 7–14 days. After satisfactory decalcification of the bone and cartilage tissue, the joint was cut in the sagittal plane. The diaphysis of the tubular bones was shortened to the border of 2–3 mm from the metaepiphyseal cartilage. In this form, the biomaterial was repeatedly washed in running water, dehydrated in alcohols of ascending concentration, and embedded in paraffin. Paraffin sections 5–7 μm thick were stained with hematoxylin and eosin and examined using conventional light microscopy. During histological analysis, the following morphological signs were assessed: inflammatory infiltration of the synovial membrane (synovitis), synovial hyperplasia, destructive changes in the articular cartilage, and destructive changes in bone tissue (if any). The following scale was used to assess the severity of a particular morphological trait: 0 points—within normal limits, 1—minimal severity, 2—weak, 3—medium (moderate), 4—strong, 5—very strong.
as §1

## COC(=O)[C@@H](Cc1c[nH]c2cc(I)ccc12)[N+](C)(C)C [Compound 1, (D)-6-iodohypaphorine methyl ester]
[1]
  increase in the expression of CD86: 21%

## COC(=O)C(Cc1c[nH]c2cc([N+](=O)[O-])ccc12)[N+](C)(C)C (stereo not shown) [Compound 5, methyl ester of 6-nitrohypaphorine]
[2]; i.p. doses 0.05–0.26 mg/kg
  anti-oedemic and analgesic effects in arthritis rat model: demonstrated anti-oedemic and analgesic effects
[2]; rats, 0.05 and 0.26 mg/kg, after eight days of administration, listed as 6ND
  grip strength of affected limb: significantly improved grip strength in MIA-induced arthritis in rats at a dose of 0.05 but not 0.26 mg/kg; also recorded: significantly improved grip strength of affected limb after eight days
[2]; rats, 0.05 and 0.26 mg/kg, days 8 and 16, listed as 6ND
  body weight distribution between healthy and affected limbs: No significant influence of 6ND on recovery was detected; also recorded: did not influence body weight distribution
[2]; rats, 2 h after administration, listed as 6ND
  thermal hyperalgesia in hot plate test: No significant effects of 6ND in hot plate test; also recorded: did not influence thermal hyperalgesia
[2]; rats, 16 days after MIA, eight days of administration, listed as 6ND
  mechanical allodynia: dose-dependent improvement in allodynia test 16 days after MIA injection; also recorded: analgesic (anti-allodynic) effect
[2]; rats, listed as 6ND
  oedema of the MIA-injected knee joint (diameter): Significant effect in dynamics of oedema was detected in rats treated with 0.05 mg/kg 6ND; also recorded: anti-oedemic effect on the MIA-injected joint
[3]; 0.05 mg/kg intramuscular
  Destructive Changes in the Distal Epiphyseal Cartilage of the Femur, Max score: 3.0
  Destructive Changes in the Distal Epiphyseal Cartilage of the Femur, Me (average) score: 3.0
  Destructive Changes in the Distal Epiphyseal Cartilage of the Femur, Min score: 3.0
  Destructive Changes in the Proximal Epiphyseal Cartilage of the Tibia, Max score: 4.0
  Destructive Changes in the Proximal Epiphyseal Cartilage of the Tibia, Me (average) score: 3.5
  Destructive Changes in the Proximal Epiphyseal Cartilage of the Tibia, Min score: 3.0
  Inflammatory Infiltration of the Synovium, Max score: 4.0
  Inflammatory Infiltration of the Synovium, Me (average) score: 3.75
  Inflammatory Infiltration of the Synovium, Min score: 3.0
  Synovial Hyperplasia, Max score: 3.0
  Synovial Hyperplasia, Min score: 2.0
[3]; 0.05 mg/kg intramuscular, listed as 6ND
  Synovial Hyperplasia, Me (average) score: 2.25
[3]; 0.26 mg/kg intramuscular
  Destructive Changes in the Distal Epiphyseal Cartilage of the Femur, Max score: 3.0
  Destructive Changes in the Distal Epiphyseal Cartilage of the Femur, Me (average) score: 3.0
  Destructive Changes in the Distal Epiphyseal Cartilage of the Femur, Min score: 3.0
  Destructive Changes in the Proximal Epiphyseal Cartilage of the Tibia, Max score: 4.0
  Destructive Changes in the Proximal Epiphyseal Cartilage of the Tibia, Me (average) score: 3.5
  Destructive Changes in the Proximal Epiphyseal Cartilage of the Tibia, Min score: 3.0
  Inflammatory Infiltration of the Synovium, Max score: 3.0
  Inflammatory Infiltration of the Synovium, Me (average) score: 2.5
  Inflammatory Infiltration of the Synovium, Min score: 2.0
  Synovial Hyperplasia, Max score: 2.0
  Synovial Hyperplasia, Me (average) score: 1.5
  Synovial Hyperplasia, Min score: 1.0
